Experimental data taken from patent US12539292B2, “BRM targeting compounds and associated methods of use” (Arvinas Operations, Inc., priority 2018, dated 2026).

Target: T1, BRM (Homo sapiens, UniProt P51531)
T1 construct: In-Cell Western Screen of BRM Degradation in SW1573 Cells; endogenous in cells; host or cells: SW1573
Assay: In-cell Western screen of BRM degradation in SW1573 cells (Dmax and DC50)
Type: cell-based
Conditions: BRM degradation, SW1573 cells; for DC50: read-out: DC50; for Dmax / Dmax (%) (% degraded): tested at the top concentration of between 0.3 and 10 μM; for Dmax: read-out: Dmax (%) (% degraded)
Outline: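 Near-infrared imaging on a LI-COR Odyssey (800 and 680 nm channels) quantifies BRM remaining in fixed SW1573 cells. Cells are dosed for 18-20 h at 0.1% final DMSO, and degradation is expressed as Dmax and DC50.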

T1 sequence (P51531 whole entry): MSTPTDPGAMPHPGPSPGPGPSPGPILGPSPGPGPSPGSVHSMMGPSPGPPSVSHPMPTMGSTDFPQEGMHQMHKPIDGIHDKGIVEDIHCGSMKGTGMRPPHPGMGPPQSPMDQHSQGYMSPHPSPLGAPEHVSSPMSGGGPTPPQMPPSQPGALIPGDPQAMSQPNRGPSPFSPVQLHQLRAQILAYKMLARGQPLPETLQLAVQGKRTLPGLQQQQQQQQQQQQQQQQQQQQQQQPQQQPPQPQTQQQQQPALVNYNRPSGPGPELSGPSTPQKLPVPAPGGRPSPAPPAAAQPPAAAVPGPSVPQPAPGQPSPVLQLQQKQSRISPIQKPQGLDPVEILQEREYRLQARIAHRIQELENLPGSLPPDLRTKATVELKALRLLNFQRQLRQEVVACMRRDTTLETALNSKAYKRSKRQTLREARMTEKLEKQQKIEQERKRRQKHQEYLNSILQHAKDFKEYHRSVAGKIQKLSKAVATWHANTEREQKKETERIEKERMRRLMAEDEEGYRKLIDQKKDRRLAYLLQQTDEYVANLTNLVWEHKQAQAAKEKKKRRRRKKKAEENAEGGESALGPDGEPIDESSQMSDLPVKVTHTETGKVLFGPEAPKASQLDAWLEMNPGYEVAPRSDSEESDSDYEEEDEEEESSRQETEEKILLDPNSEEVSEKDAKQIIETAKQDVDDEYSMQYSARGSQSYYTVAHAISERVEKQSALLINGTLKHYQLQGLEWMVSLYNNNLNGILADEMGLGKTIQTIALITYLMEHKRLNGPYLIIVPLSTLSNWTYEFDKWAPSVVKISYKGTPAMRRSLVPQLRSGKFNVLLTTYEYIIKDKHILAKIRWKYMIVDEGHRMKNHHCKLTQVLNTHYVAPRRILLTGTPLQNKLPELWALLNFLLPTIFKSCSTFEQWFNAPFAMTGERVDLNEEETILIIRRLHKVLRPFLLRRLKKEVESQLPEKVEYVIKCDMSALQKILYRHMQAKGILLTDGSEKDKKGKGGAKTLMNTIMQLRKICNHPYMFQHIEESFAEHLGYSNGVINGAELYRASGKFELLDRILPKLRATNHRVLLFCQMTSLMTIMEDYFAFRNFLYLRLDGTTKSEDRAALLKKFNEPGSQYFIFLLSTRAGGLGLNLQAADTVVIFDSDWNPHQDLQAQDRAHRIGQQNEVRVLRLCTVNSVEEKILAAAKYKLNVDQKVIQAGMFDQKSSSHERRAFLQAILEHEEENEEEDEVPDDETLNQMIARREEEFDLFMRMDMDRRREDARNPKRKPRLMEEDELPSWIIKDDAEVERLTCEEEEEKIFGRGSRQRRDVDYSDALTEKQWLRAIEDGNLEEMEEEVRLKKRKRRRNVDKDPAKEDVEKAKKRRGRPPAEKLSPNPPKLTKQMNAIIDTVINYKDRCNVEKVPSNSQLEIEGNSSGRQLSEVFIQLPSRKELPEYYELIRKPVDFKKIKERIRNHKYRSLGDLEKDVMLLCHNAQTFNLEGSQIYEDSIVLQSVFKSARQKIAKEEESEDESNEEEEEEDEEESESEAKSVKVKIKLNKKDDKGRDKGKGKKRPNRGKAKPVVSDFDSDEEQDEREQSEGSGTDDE

SMILES | DC50 [nM] | Dmax [%] | Dmax (%) (% degraded)
Cc1ncsc1-c1ccc([C@H](C)NC(=O)[C@@H]2C[C@@H](O)CN2C(=O)[C@@H](c2onc(OCCN3CCC(O[C@H]4C[C@H](Oc5cc(N6C7CCC6CN(c6cc(-c8ccccc8O)nnc6N)C7)ccn5)C4)CC3)c2Cl)C(C)C)cn1 [compound 223, (2S,4R)-1-((2R)-2-(3-(2-(4-((1r,3R)-3-((4-(3-(3-amino-6-(2-hydroxyphenyl)pyridazin-4-yl)-3,8-diazabicyclo[3.2.1]octan-8-yl)pyridin-2-yl)oxy)cyclobutoxy)piperidin-1-yl)ethoxy)-4-chloroisoxazol-5-yl)-3-methylbutanoyl)-4-hydroxy-N-((S)-1-(6-(4-methylthiazol-5-yl)pyridin-3-yl)ethyl)pyrrolidine-2-carboxamide] | 2.5 to 10 | > 75 | 
Cc1ncsc1-c1ccc(CNC(=O)[C@@H]2C[C@@H](O)CN2C(=O)[C@H](c2cc(OCCN3CCC(O[C@H]4C[C@H](Oc5cc(N6C7CCC6CN(c6cc(-c8ccccc8O)nnc6N)C7)ccn5)C4)CC3)no2)C(C)C)c(C#N)c1 [compound 224, (2S,4R)-1-((2S)-2-(3-(2-(4-((1r,3S)-3-((4-(3-(3-amino-6-(2-hydroxyphenyl)pyridazin-4-yl)-3,8-diazabicyclo[3.2.1]octan-8-yl)pyridin-2-yl)oxy)cyclobutoxy)piperidin-1-yl)ethoxy)isoxazol-5-yl)-3-methylbutanoyl)-N-(2-cyano-4-(4-methylthiazol-5-yl)benzyl)-4-hydroxypyrrolidine-2-carboxamide] | > 30 |  | 
Cc1ncsc1-c1ccc(CNC(=O)[C@@H]2C[C@@H](O)CN2C(=O)[C@@H](c2cc(OCCN3CCC(O[C@H]4C[C@H](Oc5cc(N6C7CCC6CN(c6cc(-c8ccccc8O)nnc6N)C7)ccn5)C4)CC3)no2)C(C)C)c(C#N)c1 [compound 225, (2S,4R)-1-((2R)-2-(3-(2-(4-((1r,3R)-3-((4-(3-(3-amino-6-(2-hydroxyphenyl)pyridazin-4-yl)-3,8-diazabicyclo[3.2.1]octan-8-yl)pyridin-2-yl)oxy)cyclobutoxy)piperidin-1-yl)ethoxy)isoxazol-5-yl)-3-methylbutanoyl)-N-(2-cyano-4-(4-methylthiazol-5-yl)benzyl)-4-hydroxypyrrolidine-2-carboxamide] | < 2.5 | > 75 | 
Cc1ncsc1-c1ccc([C@H](C)NC(=O)[C@@H]2C[C@@H](O)CN2C(=O)[C@H](c2cc(OCCC#Cc3ccc(OC4CC(Oc5cc(N6C7CC[C@@H]6CN(c6cc(-c8ccccc8O)nnc6N)C7)ccn5)C4)cn3)no2)C(C)C)cc1 (stereo partly drawn) [compound 226, (2S,4R)-1-((2S)-2-(3-((4-(5-((1r,3r)-3-((4-(3-(3-amino-6-(2-hydroxyphenyl)pyridazin-4-yl)-3,8-diazabicyclo[3.2.1]octan-8-yl)pyridin-2-yl)oxy)cyclobutoxy)pyridin-2-yl)but-3-yn-1-yl)oxy)isoxazol-5-yl)-3-methylbutanoyl)-4-hydroxy-N-((S)-1-(4-(4-methylthiazol-5-yl)phenyl)ethyl)pyrrolidine-2-carboxamide] | 10 to 30 |  | A (A > 75)
Cc1ncsc1-c1ccc([C@H](C)NC(=O)[C@@H]2C[C@@H](O)CN2C(=O)[C@@H](c2cc(OCCC#Cc3ccc(OC4CC(Oc5cc(N6C7CC[C@@H]6CN(c6cc(-c8ccccc8O)nnc6N)C7)ccn5)C4)cn3)no2)C(C)C)cc1 (stereo partly drawn) [compound 227, (2S,4R)-1-((2R)-2-(3-((4-(5-((1r,3r)-3-((4-(3-(3-amino-6-(2-hydroxyphenyl)pyridazin-4-yl)-3,8-diazabicyclo[3.2.1]octan-8-yl)pyridin-2-yl)oxy)cyclobutoxy)pyridin-2-yl)but-3-yn-1-yl)oxy)isoxazol-5-yl)-3-methylbutanoyl)-4-hydroxy-N-((S)-1-(4-(4-methylthiazol-5-yl)phenyl)ethyl)pyrrolidine-2-carboxamide] | < 2.5 |  | A (A > 75)
Cc1ncsc1-c1ccc(C2(NC(=O)[C@@H]3C[C@@H](O)CN3C(=O)[C@H](c3cc(OCCN4CCN(CCOc5cc(N6C7CCC6CN(c6cc(-c8ccccc8O)nnc6N)C7)ccn5)CC4)no3)C(C)C)CN(C)C2)cc1 [compound 228, (2S,4R)-1-((2S)-2-(3-(2-(4-(2-((4-(3-(3-amino-6-(2-hydroxyphenyl)pyridazin-4-yl)-3,8-diazabicyclo[3.2.1]octan-8-yl)pyridin-2-yl)oxy)ethyl)piperazin-1-yl)ethoxy)isoxazol-5-yl)-3-methylbutanoyl)-4-hydroxy-N-(1-methyl-3-(4-(4-methylthiazol-5-yl)phenyl)azetidin-3-yl)pyrrolidine-2-carboxamide] | > 30 |  | 
Cc1ncoc1-c1ccc([C@H](C)NC(=O)[C@@H]2C[C@@H](O)CN2C(=O)[C@H](c2cc(OCCN3CCC(O[C@H]4C[C@H](Oc5cc(N6C7CCC6CN(c6cc(-c8ccccc8O)nnc6N)C7)ccn5)C4)CC3)no2)C(C)C)cn1 [compound 229, (2S,4R)-1-((2S)-2-(3-(2-(4-((1r,3S)-3-((4-(3-(3-amino-6-(2-hydroxyphenyl)pyridazin-4-yl)-3,8-diazabicyclo[3.2.1]octan-8-yl)pyridin-2-yl)oxy)cyclobutoxy)piperidin-1-yl)ethoxy)isoxazol-5-yl)-3-methylbutanoyl)-4-hydroxy-N-((S)-1-(6-(4-methyloxazol-5-yl)pyridin-3-yl)ethyl)pyrrolidine-2-carboxamide] | > 30 |  | 
Cc1ncoc1-c1ccc([C@H](C)NC(=O)[C@@H]2C[C@@H](O)CN2C(=O)[C@@H](c2cc(OCCN3CCC(O[C@H]4C[C@H](Oc5cc(N6C7CCC6CN(c6cc(-c8ccccc8O)nnc6N)C7)ccn5)C4)CC3)no2)C(C)C)cn1 [compound 230, (2S,4R)-1-((2R)-2-(3-(2-(4-((1r,3R)-3-((4-(3-(3-amino-6-(2-hydroxyphenyl)pyridazin-4-yl)-3,8-diazabicyclo[3.2.1]octan-8-yl)pyridin-2-yl)oxy)cyclobutoxy)piperidin-1-yl)ethoxy)isoxazol-5-yl)-3-methylbutanoyl)-4-hydroxy-N-((S)-1-(6-(4-methyloxazol-5-yl)pyridin-3-yl)ethyl)pyrrolidine-2-carboxamide] | < 2.5 | > 75 | 
Cc1ncsc1-c1ccc([C@H](C)NC(=O)[C@@H]2C[C@@H](O)CN2C(=O)[C@H](c2cc(OCC#Cc3ncc(O[C@H]4C[C@H](Oc5cc(N6C7CCC6CN(c6cc(-c8ccccc8O)nnc6N)C7)ccn5)C4)cn3)no2)C(C)C)cc1 [compound 231, (2S,4R)-1-((2S)-2-(3-((3-(5-((1r,3S)-3-((4-(3-(3-amino-6-(2-hydroxyphenyl)pyridazin-4-yl)-3,8-diazabicyclo[3.2.1]octan-8-yl)pyridin-2-yl)oxy)cyclobutoxy)pyrimidin-2-yl)prop-2-yn-1-yl)oxy)isoxazol-5-yl)-3-methylbutanoyl)-4-hydroxy-N-((S)-1-(4-(4-methylthiazol-5-yl)phenyl)ethyl)pyrrolidine-2-carboxamide] | < 2.5 | > 75 | 
Cc1ncsc1-c1ccc([C@H](C)NC(=O)[C@@H]2C[C@@H](O)CN2C(=O)[C@@H](c2cc(OCC#Cc3ncc(O[C@H]4C[C@H](Oc5cc(N6C7CCC6CN(c6cc(-c8ccccc8O)nnc6N)C7)ccn5)C4)cn3)no2)C(C)C)cc1 [compound 232, (2S,4R)-1-((2R)-2-(3-((3-(5-((1r,3R)-3-((4-(3-(3-amino-6-(2-hydroxyphenyl)pyridazin-4-yl)-3,8-diazabicyclo[3.2.1]octan-8-yl)pyridin-2-yl)oxy)cyclobutoxy)pyrimidin-2-yl)prop-2-yn-1-yl)oxy)isoxazol-5-yl)-3-methylbutanoyl)-4-hydroxy-N-((S)-1-(4-(4-methylthiazol-5-yl)phenyl)ethyl)pyrrolidine-2-carboxamide] | < 2.5 | > 75 | 
Cc1nccn1-c1ccc([C@H](C)NC(=O)[C@@H]2C[C@@H](O)CN2C(=O)[C@H](c2cc(OCC#Cc3ccc(O[C@H]4C[C@H](Oc5cc(N6C7CCC6CN(c6cc(-c8ccccc8O)nnc6N)C7)ccn5)C4)cn3)no2)C(C)C)cc1 [compound 233, (2S,4R)-1-((2S)-2-(3-((3-(5-((1r,3S)-3-((4-(3-(3-amino-6-(2-hydroxyphenyl)pyridazin-4-yl)-3,8-diazabicyclo[3.2.1]octan-8-yl)pyridin-2-yl)oxy)cyclobutoxy)pyridin-2-yl)prop-2-yn-1-yl)oxy)isoxazol-5-yl)-3-methylbutanoyl)-4-hydroxy-N-((S)-1-(4-(2-methyl-1H-imidazol-1-yl)phenyl)ethyl)pyrrolidine-2-carboxamide] | 10 to 30 | > 75 | 
Cc1nccn1-c1ccc([C@H](C)NC(=O)[C@@H]2C[C@@H](O)CN2C(=O)[C@@H](c2cc(OCC#Cc3ccc(O[C@H]4C[C@H](Oc5cc(N6C7CCC6CN(c6cc(-c8ccccc8O)nnc6N)C7)ccn5)C4)cn3)no2)C(C)C)cc1 [compound 234, (2S,4R)-1-((2R)-2-(3-((3-(5-((1r,3R)-3-((4-(3-(3-amino-6-(2-hydroxyphenyl)pyridazin-4-yl)-3,8-diazabicyclo[3.2.1]octan-8-yl)pyridin-2-yl)oxy)cyclobutoxy)pyridin-2-yl)prop-2-yn-1-yl)oxy)isoxazol-5-yl)-3-methylbutanoyl)-4-hydroxy-N-((S)-1-(4-(2-methyl-1H-imidazol-1-yl)phenyl)ethyl)pyrrolidine-2-carboxamide] | < 2.5 | > 75 | 
CC(=O)N1CC(NC(=O)[C@@H]2C[C@@H](O)CN2C(=O)[C@H](c2cc(OCCN3CCN(CCOc4cc(N5C6CCC5CN(c5cc(-c7ccccc7O)nnc5N)C6)ccn4)CC3)no2)C(C)C)(c2ccc(-c3scnc3C)cc2)C1 [compound 235, (2S,4R)-N-(1-acetyl-3-(4-(4-methylthiazol-5-yl)phenyl)azetidin-3-yl)-1-((2S)-2-(3-(2-(4-(2-((4-(3-(3-amino-6-(2-hydroxyphenyl)pyridazin-4-yl)-3,8-diazabicyclo[3.2.1]octan-8-yl)pyridin-2-yl)oxy)ethyl)piperazin-1-yl)ethoxy)isoxazol-5-yl)-3-methylbutanoyl)-4-hydroxypyrrolidine-2-carboxamide] | > 30 |  | 
